Test system: Mtb-infected mouse lungs
Assay: Genome-wide lung transcriptome (microarray, IPA network/GO analysis) of Mtb-infected mice
Assay type: in vivo
Details: TNF-a regulon network

## CCOc1cc([C@@H](CS(C)(=O)=O)N2Cc3cccc(NC(=O)C4CC4)c3C2=O)ccc1OC [CC-11050, N-[2-[(1S)-1-(3-ethoxy-4-methoxyphenyl)-2-(methylsulfonyl)ethyl]-2,3-dihydro-3-oxo-1H-isoindol-4-yl]-(9Cl) cyclopropanecarboxamide]
  ENTPD5 expression: 0
  ERCC1 expression: 0
  ERG expression: 0
  ESM1 expression: 0
  FABP1 expression: 0
  FABP4 expression: 0
  FBL expression: 0
  FBXO32 expression: 0
  FCER1G expression: 0
  FCER2 expression: 0
  FGF2 expression: 1.266
  FGF10 expression: 0
  FGF18 expression: 0
  FGFRL1 expression: 0
  FMO1 expression: 0
  FN1 expression: 0
  FNBP1 expression: 0
  FOXO4 expression: 0
  FPR1 expression: 0
  FUT4 expression: 0
  GAB1 expression: 0
  GBP2 expression: 0
  GCLM expression: 0
  GHR expression: 0
  GNAI1 expression: 0
  GNB4 expression: 0
  GNL1 expression: 0
  GOSR2 expression: 0
  GPD1 expression: 0
  GPR126 expression: 0
  GPR176 expression: 0
  GRIA1 expression: 0
  GRN expression: 0
  GSTM2 expression: 0
  GSTT1 expression: 1.249
  GUSB expression: 0
  Gbp2 expression: 0
  Gbp4 expression: 0
  Gbp6 (includes others) expression: 0
  Gsta4 expression: 0
  H2-Q4 expression: 0
  HAPLN1 expression: 0
  HERC1 expression: 0
  HES1 expression: 0
  HEXB expression: 0
  HIF1A expression: 0
  HIPK3 expression: 0
  HIVEP1 expression: 0
  HK2 expression: 0
  HK3 expression: 0
  HLA-B expression: 0
  HLA-C expression: 0
  HLA-DRA expression: 0
  HLA-E expression: 0
  HLA-F expression: 0
  HMGN2 expression: 0
  HPGD expression: 0
  HPGDS expression: 0
  HPRT1 expression: 0
  HSD3B2 expression: 0
  HSD11B1 expression: 1.622
  ID1 expression: 1.521
  IDH2 expression: 0
  IDO1 expression: 0
  IFIH1 expression: 0
  IFIT1B expression: 0
  IFNAR2 expression: 0
  IGFBP5 expression: 0
  IGFBP6 expression: 0
  IL1RN expression: 0
  IL2RA expression: 0
  IL10RA expression: 0
  IL17RD expression: 0
  IL18BP expression: 0
  IL21R expression: 0
  IL21 expression: 0
  INHBA expression: 0
  IRF1 expression: 0
  IRF5 expression: 0
  IRF7 expression: 0
  IRF8 expression: 0
  IRG1 expression: 0
  ISG15 expression: 0
  ITGA4 expression: 0
  ITGAL expression: 0
  ITGAM expression: 0
  ITGB2 expression: 0
  ITGB7 expression: 0
  Ifi204 (includes others) expression: 0
  KCNJ1 expression: 0
  KDR expression: 0
  KIF20A expression: 0
  KITLG expression: 0
  KLF7 expression: 1.276
  KLF10 expression: 1.476
  KRT23 expression: 0
  KYNU expression: 0
  LAMP3 expression: 0
  LCAT expression: 0
  LCN2 expression: 0
  LEP expression: 0
  LGALS12 expression: 0
  LITAF expression: 0
  LOC653486/SCGB1C1 expression: 0
  LOX expression: 1.533
  LPL expression: 0
  LRRC8C expression: 0
  LTB expression: 0
  LXN expression: 0
  LYVE1 expression: 1.461
  MAN1C1 expression: 0
  MAP2K3 expression: 1.176
  MAP4K4 expression: -1.132
  MAPKAP1 expression: 0
  MARCKSL1 expression: 0
  MCL1 expression: 0
  MCM3 expression: 0
  MEFV expression: 0
  MEOX1 expression: 0
  MEOX2 expression: 0
  MMP7 expression: 1.207
  MMP8 expression: 0
  MMP13 expression: 0
  MMP16 expression: 0
  MMP28 expression: 0
  MPC1 expression: 0
  MSR1 expression: 0
  MUC4 expression: 0
  MVP expression: 0
  MYO9B expression: 0
  NAGLU expression: 0
  NAIP expression: 0
  NAMPT expression: 0
  NCAM1 expression: 0
  NCF2 expression: 0
  NCOA2 expression: 0
  NEDD9 expression: -1.086
  NFATC1 expression: 0
  NFKB2 expression: 0
  NFKBIA expression: 0
  NFKBIE expression: 0
  NFKBIZ expression: -1.15
  NFRKB expression: 0
  NME3 expression: 1.1811
  NNMT expression: 0
  NPM3 expression: 0
  NPPA expression: 0
  NR4A1 expression: 0
  NR4A3 expression: 0
  NRP1 expression: 0
  NTN1 expression: 0
  NUAK1 expression: 0
  NUAK2 expression: 0
  Nppb expression: 0
  OAS1 expression: 0
  OAS2 expression: 0
  OAS3 expression: 0
  OASL expression: 0
  OCLN expression: 0
  OGN expression: 1.2
  OLFML2B expression: 0
  OLR1 expression: 0
  P2RY6 expression: 0
  PAFAH2 expression: 0
  PC expression: 0
  PCBP2 expression: 0
  PCDH7 expression: 0
  PCK1 expression: 0

Source: paper PMC4911353, “Pharmacologic Inhibition of Host Phosphodiesterase-4 Improves Isoniazid-Mediated Clearance of Mycobacterium tuberculosis” (Frontiers in Immunology, 2016)
